US20230203025A1, “ENHANCERS OF PARTICULATE GUANYLYL CYCLASE RECEPTOR A” (Mayo Foundation for Medical Education and Research, priority 2020, published 2023)

Tests used:
[1] = molecular target: T1, pGC-A (Homo sapiens, UniProt P16066); assay: cGMP production by HTRF in HEK293 cells overexpressing pGC-A; format: cell-based
T1 construct: expressed in transfected cells; host or cells: HEK293
T1 sequence (P16066 33-1061): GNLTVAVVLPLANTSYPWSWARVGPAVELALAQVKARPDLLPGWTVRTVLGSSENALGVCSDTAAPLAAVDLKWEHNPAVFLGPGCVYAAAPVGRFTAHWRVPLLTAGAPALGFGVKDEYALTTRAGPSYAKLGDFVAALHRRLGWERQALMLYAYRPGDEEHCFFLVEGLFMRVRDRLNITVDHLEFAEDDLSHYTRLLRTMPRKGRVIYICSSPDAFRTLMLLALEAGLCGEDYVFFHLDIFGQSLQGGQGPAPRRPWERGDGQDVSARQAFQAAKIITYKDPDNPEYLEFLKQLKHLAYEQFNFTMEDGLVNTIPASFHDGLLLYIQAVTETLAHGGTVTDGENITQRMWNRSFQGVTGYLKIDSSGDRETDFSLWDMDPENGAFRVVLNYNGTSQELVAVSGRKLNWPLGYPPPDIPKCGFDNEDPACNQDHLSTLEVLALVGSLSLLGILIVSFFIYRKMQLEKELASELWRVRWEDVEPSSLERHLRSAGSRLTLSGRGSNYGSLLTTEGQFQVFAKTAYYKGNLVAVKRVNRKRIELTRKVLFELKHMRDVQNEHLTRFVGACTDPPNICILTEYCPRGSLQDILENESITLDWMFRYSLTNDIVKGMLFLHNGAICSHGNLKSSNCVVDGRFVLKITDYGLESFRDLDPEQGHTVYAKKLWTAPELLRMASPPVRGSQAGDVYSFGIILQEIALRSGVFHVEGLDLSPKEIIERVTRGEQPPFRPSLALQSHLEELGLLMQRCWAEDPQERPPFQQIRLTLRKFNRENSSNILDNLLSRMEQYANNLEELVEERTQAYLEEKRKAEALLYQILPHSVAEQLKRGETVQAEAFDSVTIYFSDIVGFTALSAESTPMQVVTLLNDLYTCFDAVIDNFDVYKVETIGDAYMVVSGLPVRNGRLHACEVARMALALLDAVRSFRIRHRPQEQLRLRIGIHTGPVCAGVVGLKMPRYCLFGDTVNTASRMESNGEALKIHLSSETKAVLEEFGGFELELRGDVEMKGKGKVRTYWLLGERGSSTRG
T1 sequence (P01160 124-151 partner limits assumed): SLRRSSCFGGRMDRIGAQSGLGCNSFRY
Procedure: Assay details: 20 nL of 10 μM test compound in DMSO was added to columns 5-48 of 1536 well white high base screening plates (Corning, New York, N.Y.) cells using 550 ECHO acoustic dispenser (Labcyte, San Jose, Calif.). […] HEK293 cells overexpressing GC-A were resuspended in assay media (OptimMem media containing 2% Heat-inactivated Fetal bovine serum and L-glutamine) at a density of 6×10^5 cells/mL and 2 μL were plated in screening plates (1200 cells/well) in suspension using a Bioraptr 2. Plates were spun at 1000 rpm for 1 min and incubated for 30 min at room temperature. 1.5 μL d2-labled cGMP followed by 1.5 uL Eu^3+ cryptate-labeled anti-cGMP cGMP detection kit (CiBio; #62GM2PEC) prepared according to manufacturer's protocol were added to all wells using a Bioraptr 2 and TR-FRET signal was detected on an EnVision detector (PerkinElmer).

[2] = system: spontaneously hypertensive rats (SHRs); assay: IV bolus in spontaneously hypertensive rats; format: in vivo, rat; details: SHR, single IV bolus 10 mg/kg
Procedure: Methods (IV Bolus Administration of Compound 19 in (SHRs): the cGMP generating and blood pressure lowering actions of a single IV bolus dose of Compound 19 at 10 mg/kg in spontaneously hypertensive rats (SHRs; n=2; 12 weeks old; Envigo, East Millstone, N.J.) were investigated. Studies were performed in accordance with the Animal Welfare Act and with approval of the Mayo Clinic Institutional Animal Care and Use Committee.
SHRs were anesthetized in an induction chamber with inhaled isoflurane 3%.
During this brief state of anesthesia, SHRs were administered Inactin (100 mg/kg; IP to induce anesthesia and then maintained with by additional Inactin 100 mg/kg (IP), as required. Once adequate anesthesia was achieved, the anesthetized SHRs were subjected to vessel and bladder cannulation for Compound 19 administration, blood sampling and urine collection. A polyethylene (PE)-50 tube catheter was placed into the jugular vein for Compound 19 intravenous (IV) administration. The carotid artery was cannulated with a PE-50 tube catheter for blood pressure monitoring and blood sampling/collection. The bladder was accessed and cannulated with a PE-50 tube catheter for passive urine collection. After completion of the above procedural set up, a 45-minute equilibration period was performed that included a 30-minute baseline urine collection and a single baseline blood sample was performed.

[3] = molecular target: T2, human GC-A (Homo sapiens, UniProt P16066); assay: ex vivo cGMP generation in HEK293 GC-A cells incubated with human plasma; format: cell-based
T2 construct: expressed in transfected cells; host or cells: HEK293
T2 sequence (P16066 33-1061): T1 sequence (P16066 33-1061)
T2 sequence (P01160 124-151 partner limits assumed): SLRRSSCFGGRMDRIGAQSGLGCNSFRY
Procedure: Methods: Stored human plasma samples from normal subjects and patients with hypertension and HF were utilized. The details of the recruitment of these participants are previously reported. All participants gave written informed consent and the Institutional Review Board (IRB) at Mayo Clinic approved this study. […] HEK293 overexpressing human GC-A were cultured and grown as described above. Cells were grown in 48-well plates to 80-90% confluence. On the day of the experiment, cells were pre-incubated with Compound 19 at doses of 1, 5 or 10 μM and without (Veh) in 250 μL treatment buffer for 5 min at 37° C. 25 μL of human plasma was then added and incubated for additional 10 min. After, cells were washed with PBS once, lysed with 0.1M HCl and intracellular cGMP levels were measured in the lysate using a commercial cGMP ELISA kit (Enzo Life Sciences, Farmingdale, N.Y.) as instructed by the manufacturer.

CN(C)CCN1CCCC(C(=O)Nc2nc3c(F)cc(F)cc3s2)C1 (stereo not drawn) [Compound 19]
Emax ([1]; HEK293, cGMP normalized to maximal amount produced by an EC80 concentration of ANP, read-out: Max efficacy): 82%
EC50 ([1]; HEK293 pGC-A cells, cGMP HTRF, in the presence of EC20 concentration of ANP): 390 nM
cGMP activity in cells expressing pGC-A ([1]; in the absence of ANP): devoid of cGMP activity
diuresis (urine volume) [2]: increase in diuresis
mean arterial pressure ([2]; 0-60 min): decrease in mean arterial pressure
plasma cGMP ([2]; compared to baseline): increase
urinary cGMP ([2]; compared to baseline): increase
generation of cGMP levels in HEK293 GC-A cells ([3]; 1, 5 or 10 μM with human plasma from normal, hypertension and HF cohorts): potentiated the generation of cGMP levels
cGMP potency by plasma cohort ([3]; HF plasma, highest circulating ANP and BNP): greatest cGMP potency
